Measurements from patent publication US7785828B1 (priority 2003, dated 2010).

Assays:
Format in all cases: cell-based
Fusarium graminearum = tested on: Fusarium graminearum
Mycosphaerella fijiensis = tested on: Mycosphaerella fijiensis
Septoria tritici = tested on: Septoria tritici

Sequence | Antifungal activity, Fusarium graminearum (improvement compared to DmAMP1) (Fusarium graminearum) | Antifungal activity, Mycosphaerella fijiensis (improvement compared to DmAMP1) (Mycosphaerella fijiensis) | Antifungal activity, Septoria tritici (improvement compared to DmAMP1) (Septoria tritici)
NLCEKASKTWTGNCGNTKHCDTQCKNWEGAKHGACHVRNGKWKCFCYFNC (Defensin like) [L6-69] | +++ (key: + indicating 1- to 5-fold improvement compared to DmAMP1; ++ indicating >5- to 10-fold improvement; +++ indicating >10-fold improvement) | + (key: + indicating 1- to 5-fold improvement compared to DmAMP1; ++ indicating >5- to 10-fold improvement; +++ indicating >10-fold improvement) | +++ (key: + indicating 1- to 5-fold improvement compared to DmAMP1; ++ indicating >5- to 10-fold improvement; +++ indicating >10-fold improvement)
NLCERASKTWSGNCGNTKHCDTQCKNWEGAAHGACHKRNGKWKCFCYFNC (Defensin like) [L9-13] | ++ (key: + indicating 1- to 5-fold improvement compared to DmAMP1; ++ indicating >5- to 10-fold improvement; +++ indicating >10-fold improvement) | + (key: + indicating 1- to 5-fold improvement compared to DmAMP1; ++ indicating >5- to 10-fold improvement; +++ indicating >10-fold improvement) | + (key: + indicating 1- to 5-fold improvement compared to DmAMP1; ++ indicating >5- to 10-fold improvement; +++ indicating >10-fold improvement)
NLCEKASKTWSGNCGNTKHCDNQCRSWEGAKHGACHVRNGKHKCFCYFNC (Defensin like) [L9-23] | +++ (key: + indicating 1- to 5-fold improvement compared to DmAMP1; ++ indicating >5- to 10-fold improvement; +++ indicating >10-fold improvement) | ++ (key: + indicating 1- to 5-fold improvement compared to DmAMP1; ++ indicating >5- to 10-fold improvement; +++ indicating >10-fold improvement) | ++ (key: + indicating 1- to 5-fold improvement compared to DmAMP1; ++ indicating >5- to 10-fold improvement; +++ indicating >10-fold improvement)
NLCERASKTWTGNCGNTKHCDNQCKSWEGAAHGACHVRNGKHKCFCYFNC (Defensin like) [L5-24] | +++ (key: + indicating 1- to 5-fold improvement compared to DmAMP1; ++ indicating >5- to 10-fold improvement; +++ indicating >10-fold improvement) | + (key: + indicating 1- to 5-fold improvement compared to DmAMP1; ++ indicating >5- to 10-fold improvement; +++ indicating >10-fold improvement) | ++ (key: + indicating 1- to 5-fold improvement compared to DmAMP1; ++ indicating >5- to 10-fold improvement; +++ indicating >10-fold improvement)
NLCERASKTWSGNCGNTKHCDNQCRNWEGAKHGACHVRNGKWKCFCYFNC [L6-40] (Defensin like) | +++ (key: + indicating 1- to 5-fold improvement compared to DmAMP1; ++ indicating >5- to 10-fold improvement; +++ indicating >10-fold improvement) | + (key: + indicating 1- to 5-fold improvement compared to DmAMP1; ++ indicating >5- to 10-fold improvement; +++ indicating >10-fold improvement) | +++ (key: + indicating 1- to 5-fold improvement compared to DmAMP1; ++ indicating >5- to 10-fold improvement; +++ indicating >10-fold improvement)
NLCERASKTWSGNCGNTKHCDNQCKSWEGAAHGACHVRNGKHKCFCYFNC (Defensin like) [L6-61] | +++ (key: + indicating 1- to 5-fold improvement compared to DmAMP1; ++ indicating >5- to 10-fold improvement; +++ indicating >10-fold improvement) | + (key: + indicating 1- to 5-fold improvement compared to DmAMP1; ++ indicating >5- to 10-fold improvement; +++ indicating >10-fold improvement) | ++ (key: + indicating 1- to 5-fold improvement compared to DmAMP1; ++ indicating >5- to 10-fold improvement; +++ indicating >10-fold improvement)
DGVKLCERPSKTWSGHCGNTKHCDKQCRSWEGAAHGACHVRNGKWKCFCYFNC (Defensin like) [L7-94] | ++ (key: + indicating 1- to 5-fold improvement compared to DmAMP1; ++ indicating >5- to 10-fold improvement; +++ indicating >10-fold improvement) | + (key: + indicating 1- to 5-fold improvement compared to DmAMP1; ++ indicating >5- to 10-fold improvement; +++ indicating >10-fold improvement) | + (key: + indicating 1- to 5-fold improvement compared to DmAMP1; ++ indicating >5- to 10-fold improvement; +++ indicating >10-fold improvement)
NLCEKASKTWTGNCGNTKHCDNQCRNWEGAAHGACHKRSGKWKCFCYFNC (Defensin like) [L9-36] | + (key: + indicating 1- to 5-fold improvement compared to DmAMP1; ++ indicating >5- to 10-fold improvement; +++ indicating >10-fold improvement) | + (key: + indicating 1- to 5-fold improvement compared to DmAMP1; ++ indicating >5- to 10-fold improvement; +++ indicating >10-fold improvement) | + (key: + indicating 1- to 5-fold improvement compared to DmAMP1; ++ indicating >5- to 10-fold improvement; +++ indicating >10-fold improvement)
NLCERASKTWSGNCGNTKHCDNQCRSWEGAKHGACHVRSGKHKCFCYFNC (Defensin like) [L9-16] | +++ (key: + indicating 1- to 5-fold improvement compared to DmAMP1; ++ indicating >5- to 10-fold improvement; +++ indicating >10-fold improvement) | + (key: + indicating 1- to 5-fold improvement compared to DmAMP1; ++ indicating >5- to 10-fold improvement; +++ indicating >10-fold improvement) | ++ (key: + indicating 1- to 5-fold improvement compared to DmAMP1; ++ indicating >5- to 10-fold improvement; +++ indicating >10-fold improvement)
DGVKLCEKASQTWSGHCGNTKHCDNQCKNWEGAKHGACHKRSGKWKCFCYFNC (Defensin like) [L7-422] | + (key: + indicating 1- to 5-fold improvement compared to DmAMP1; ++ indicating >5- to 10-fold improvement; +++ indicating >10-fold improvement) | + (key: + indicating 1- to 5-fold improvement compared to DmAMP1; ++ indicating >5- to 10-fold improvement; +++ indicating >10-fold improvement) | + (key: + indicating 1- to 5-fold improvement compared to DmAMP1; ++ indicating >5- to 10-fold improvement; +++ indicating >10-fold improvement)
NLCEKASKTWTGNCGNTKHCDTQCKSWEGAKHGACHVRSGKHKCFCYFNC (Defensin like) [L9-29] | +++ (key: + indicating 1- to 5-fold improvement compared to DmAMP1; ++ indicating >5- to 10-fold improvement; +++ indicating >10-fold improvement) | ++ (key: + indicating 1- to 5-fold improvement compared to DmAMP1; ++ indicating >5- to 10-fold improvement; +++ indicating >10-fold improvement) | ++ (key: + indicating 1- to 5-fold improvement compared to DmAMP1; ++ indicating >5- to 10-fold improvement; +++ indicating >10-fold improvement)
NLCERASKTWTGNCGNTKHCDTQCRSWEGAAHGACHVRSGKHKCFCYFNC (Defensin like) [L5-23] | + (key: + indicating 1- to 5-fold improvement compared to DmAMP1; ++ indicating >5- to 10-fold improvement; +++ indicating >10-fold improvement) | + (key: + indicating 1- to 5-fold improvement compared to DmAMP1; ++ indicating >5- to 10-fold improvement; +++ indicating >10-fold improvement) | + (key: + indicating 1- to 5-fold improvement compared to DmAMP1; ++ indicating >5- to 10-fold improvement; +++ indicating >10-fold improvement)
NLCERASKTWSGNCGNTKHCDTQCRNWEGAAHGACHVRNGKHKCFCYFNC (NLCERASKTWSGNCGNTKHCDTQCKNWEGAAHGACHVRNGKHKCFCYFNC; Defensin like) [L6-57] | +++ (key: + indicating 1- to 5-fold improvement compared to DmAMP1; ++ indicating >5- to 10-fold improvement; +++ indicating >10-fold improvement) | ++ (key: + indicating 1- to 5-fold improvement compared to DmAMP1; ++ indicating >5- to 10-fold improvement; +++ indicating >10-fold improvement) | + (key: + indicating 1- to 5-fold improvement compared to DmAMP1; ++ indicating >5- to 10-fold improvement; +++ indicating >10-fold improvement)
NLCERASKTWSGNCGNTKHCDNQCKSWEGAAHGACHKRNGKWKCFCYFNC (Defensin like) [L9-18] | ++ (key: + indicating 1- to 5-fold improvement compared to DmAMP1; ++ indicating >5- to 10-fold improvement; +++ indicating >10-fold improvement) | + (key: + indicating 1- to 5-fold improvement compared to DmAMP1; ++ indicating >5- to 10-fold improvement; +++ indicating >10-fold improvement) | ++ (key: + indicating 1- to 5-fold improvement compared to DmAMP1; ++ indicating >5- to 10-fold improvement; +++ indicating >10-fold improvement)
NLCERASKTWTGNCGNTKHCDNQCRNWEGAAHGACHVRSGKHKCFCYFNC (Defensin like) [L6-85] | +++ (key: + indicating 1- to 5-fold improvement compared to DmAMP1; ++ indicating >5- to 10-fold improvement; +++ indicating >10-fold improvement) | + (key: + indicating 1- to 5-fold improvement compared to DmAMP1; ++ indicating >5- to 10-fold improvement; +++ indicating >10-fold improvement) | + (key: + indicating 1- to 5-fold improvement compared to DmAMP1; ++ indicating >5- to 10-fold improvement; +++ indicating >10-fold improvement)
NLCEKASKTWTGNCGNTKHCDNQCRNWEGAAHGACHKRNGKWKCFCYFNC (Defensin like) [L3-71] | +++ (key: + indicating 1- to 5-fold improvement compared to DmAMP1; ++ indicating >5- to 10-fold improvement; +++ indicating >10-fold improvement) | +++ (key: + indicating 1- to 5-fold improvement compared to DmAMP1; ++ indicating >5- to 10-fold improvement; +++ indicating >10-fold improvement) | +++ (key: + indicating 1- to 5-fold improvement compared to DmAMP1; ++ indicating >5- to 10-fold improvement; +++ indicating >10-fold improvement)
